Our source for the IC50 and Ki values is patent US20070111968A1, “1-Aza-dibenzo[e,h]azulenes for the treatment of central nervous system diseases and disorders” (GLAXOSMITHKLINE ISTRAZIVACKI CENTAR ZAGREB D.O.O., priority 2003, published 2007).

In one test the target is T1, 5-HT2A receptor (Homo sapiens, UniProt P28223).
T1 construct: expressed in transfected cells; host or cells: CHO-K1 (or COS-7); alternatively human cortex tissue
As to the kind of experiment: radioligand binding assay for 5-HT2A receptor ([3H]-ketanserin). Particulars: competitive binding. The protocol: (§1) The effect of the compounds of the present invention on the neurochemical steady state was determined by in vitro investigations such as a radionuclide-marked radioligand binding assay for 5-HT2A (Bonhaus D. W. Br. J. Pharmacol. 1995, 115:622; Saucier C. J. Neurochem. 1997, 68:1998) and 5-HT2C receptors (Wolf W. A. J. Neurochem. 1997, 69:1449), in vitro binding assay for σ1 receptor (Thomson W. and Donn R. Arthritis Res. 2002, 4: 302-306) and by in vivo investigations in a tail suspension test (Vogel H. G. and Vogel W. H. Drug Discovery and Evaluation Pharmacological Assays, Springer 1997, 304), in amphethamine-induced hyperlocomotion in mice (Millan M. J. et al, 1998 J. Pharmacol. Exp. Ther. 287: 167-186), in a forced swim test in mice (Porsolt R. D. et al. Arch. Int. Pharmacodyn. 1977, 229:327-336), in meta-chlorophenyl piperazine (m-CPP) test on rats (Drug Dev. Res. 1989, 18:119-144), and in apomorphine, tryptamine, norepinephrine (ATN) test in rats (Arch. Int. […]
(§2) A small concentration of a radioligand having a great affinity for binding to a receptor was incubated with a tissue sample enriched with a certain receptor (1-5 mg of tissue) in a buffered medium (0.2-5 mL). […] When a binding balance was achieved, the receptors to which the radioligand was bound were separated from those to which said ligand was not bound, and the radioactivity of the receptor/radioligand complex was measured. […]

Another test addresses T2, 5-HT2C receptor (Homo sapiens, UniProt P28335).
T2 construct: expressed in transfected cells; host or cells: CHO-K1 (or COS-7); alternatively choroid plexus tissue
T2 sequence (P28335 33-458): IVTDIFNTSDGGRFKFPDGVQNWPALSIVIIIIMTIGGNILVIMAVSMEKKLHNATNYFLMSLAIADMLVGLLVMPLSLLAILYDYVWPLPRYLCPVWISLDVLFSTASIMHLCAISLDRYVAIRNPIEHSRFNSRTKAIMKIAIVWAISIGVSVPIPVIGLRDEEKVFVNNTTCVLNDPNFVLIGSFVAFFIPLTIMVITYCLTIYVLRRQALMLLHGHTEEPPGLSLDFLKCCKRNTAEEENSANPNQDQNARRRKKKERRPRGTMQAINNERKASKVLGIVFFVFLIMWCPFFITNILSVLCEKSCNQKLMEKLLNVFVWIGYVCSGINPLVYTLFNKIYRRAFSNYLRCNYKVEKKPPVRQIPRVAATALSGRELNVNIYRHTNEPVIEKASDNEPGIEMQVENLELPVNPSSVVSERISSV
Briefly: radioligand binding assay for 5-HT2C receptor ([3H]mesulergine). To be noted: competitive binding. As to the method: as §1, §2

T1 sequence (P28223 whole entry): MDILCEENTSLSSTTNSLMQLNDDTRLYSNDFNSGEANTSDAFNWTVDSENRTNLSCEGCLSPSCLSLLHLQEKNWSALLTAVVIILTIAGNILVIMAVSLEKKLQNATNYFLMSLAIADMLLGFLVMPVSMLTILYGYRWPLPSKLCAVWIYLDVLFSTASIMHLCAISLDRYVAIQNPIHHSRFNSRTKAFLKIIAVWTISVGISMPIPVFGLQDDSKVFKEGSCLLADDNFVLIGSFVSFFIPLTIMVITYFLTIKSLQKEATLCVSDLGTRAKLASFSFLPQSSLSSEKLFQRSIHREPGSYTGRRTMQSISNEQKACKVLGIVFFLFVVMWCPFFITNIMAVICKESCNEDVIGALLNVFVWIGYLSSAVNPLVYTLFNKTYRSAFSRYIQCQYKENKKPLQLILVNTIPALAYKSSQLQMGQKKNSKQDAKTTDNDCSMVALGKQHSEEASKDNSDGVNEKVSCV

Regarding `CN(C)CCOCc1cc2c([nH]1)-c1ccccc1Sc1ccccc1-2` [dimethyl-[2-(1H-8-thia-1-aza-dibenzo[e,h]azulen-2-ylmethoxy)-ethyl]-amine], the IC50 (commonly the midpoint of a concentration-inhibition curve) at 5-HT2A receptor (human cortex or recombinant 5-HT2A in CHO-K1, read-out: binding affinity to 5-HT2A serotonin receptor expressed as IC50 value) is below 200 nM; at 5-HT2C receptor (choroid plexus or recombinant 5-HT2C in CHO-K1, read-out: binding affinity to 5-HT2C serotonin receptor expressed as IC50 value) it was below 200 nM. Besides, the Ki (in general, a measure of affinity in units of concentration, obtained from inhibition or displacement) is below 100 nM at 5-HT2A receptor (human cortex or recombinant 5-HT2A in CHO-K1, read-out: binding affinity to 5-HT2A serotonin receptor, Ki value) and below 100 nM on 5-HT2C receptor (choroid plexus or recombinant 5-HT2C in CHO-K1, read-out: binding affinity to 5-HT2C serotonin receptor, Ki value).
